Results as given in patent publication US9469643B2, “Polymorphic forms of (S)-2-(1-(9H-purin-6-ylamino)propyl)-5-fluoro-3-phenylquinazolin-4(3H)-one” (GILEAD CALISTOGA LLC, priority 2012, dated 2016).
In brackets after ≈: the same amount, converted by molar mass. Where two headings read alike, the source gives them in different places. Blank lines part the entries; values can stand above or below the compound they belong to.

Experiments:
Assay type in all cases: physicochemical
[1] = Effect of temperature on form conversion of solids (DSC, heating, XRPD)
Method: DSC indicated close melting points for each polymorph and a solid-solid transition in Form II at about 115° C. to produce Form I. To confirm this finding, […] of Form I of (S)-2-(1-(9H-purin-6-ylamino)propyl)-5-fluoro-3-phenylquinazolin-4(3H)-one was heated at 50° C., 60° C., 70° C., 80° C., 90° C., 100° C., 110° C. and 120° C. jacket temperature using Destiny for 22 hours.

[2] = Hydrate screen in ethanol/water system: solid form
Method: (§1) About 50 mg of Form I of (S)-2-(1-(9H-purin-6-ylamino)propyl)-5-fluoro-3-phenylquinazolin-4(3H)-one was slurried in either (A) a 1-mL mixture of a isopropyl alcohol (IPA) and water, or (B) a 1-mL mixture of ethanol and water, for several days at room temperature. As used herein, water activity (aw) in liquid phase corresponds to relative humidity in the atmosphere. For example, 0.5 aw is equivalent to 50% relative humidity.
Form VII of (S)-2-(1-(9H-purin-6-ylamino)propyl)-5-fluoro-3-phenylquinazolin-4(3H)-one was a mixed water/ethanol solvate.

[3] = Form I suspensions in acetone at different temperatures: form conversion; details: magnetic stirring
Method: Form I of (S)-2-(1-(9H-purin-6-ylamino)propyl)-5-fluoro-3-phenylquinazolin-4(3H)-one was suspended in acetone at a concentration of 50 mg/mL, and stirred magnetically over a period of 5-6 days. Four experiments at different temperature were conducted.
Table 4 summarizes the reaction conditions and the amount of polymorphic forms observed for each of the four experiments. As used in this Example, “Enriched II” described a sample that contains substantially more Form II than Form I.

[4] = Conversion of ball milled Form I into Form II in acetone slurry (XRPD); details: 10 g ball milled at 30 Hz for 10 minutes, stirred in 300 mL acetone at 28° C.
Method: Form I was prepared as described in Example 1. Form I solids were ball milled in batches for 10 minutes at 30 Hz. Samples were analyzed by XRPD. Table 1 below summarizes the amount of polymorphic Form II observed from conversion of polymorphic Form I. Additionally, 10 g of Form I was ball milled at 30 Hz for 10 minutes and stirred in 300 mL of acetone at 28° C.

[5] = Hydrate screen in IPA/water system: solubility of slurried Form I; details: isopropyl alcohol/water mixture, organic solvent or mixture, thermodynamic from solid; for solubility: read-out: 15-16 Day Solubility
Method: as §1

[6] = Compression of Form I in hydraulic tablet press, XRPD
Method: Form I of (S)-2-(1-(9H-purin-6-ylamino)propyl)-5-fluoro-3-phenylquinazolin-4(3H)-one was subjected to high pressure in a hydraulic tablet press (ENERPAC Model P142 hydraulic press; #9166 0.275 inch punch) as shown in Table 3 below. The relaxation time is the time between compressions. A sample of the compressed solids was analyzed by XRPD and DSC. FIGS. 2A and 2B depict the XRPD and DSC patterns of polymorphic Form II.

[7] = Dry and wet grinding experiments: conversion of Form I into Form II in slurry
Method: Form I of (S)-2-(1-(9H-purin-6-ylamino)propyl)-5-fluoro-3-phenylquinazolin-4(3H)-one was pre-processed using various grinding methods before forming a slurry in either acetone or THF and stirring at either room temperature, 22° C. or 30° C. As used in this Example, “enriched” describes a sample that contains substantially more Form II than Form I.

[8] = Hydrate screen in IPA/water system: solid form by XRPD
Method: XRPD patterns were collected using a PANalytical X'Pert MPD Pro Powder X-Ray Diffractometer configured with reflectance stage with spinning, data acquisition range: 2-40 degrees 2θ, Copper (Cu) anode; Kα1/Kα2 radiation; tube current 40 mA; tube tension 45 kV; automatic divergence and anti-scatter slits. Samples were prepared for analysis by distributing solid material as a thin layer on a silicon holder. Each holder was mounted on a reflectance/transmittance stage and rotated during data acquisition.
as §1

[9] = IPA/water aw 0.2, room temperature, solid by XRPD Form I & II
[10] = IPA/water aw 0.3, room temperature, solid by XRPD Form I & II
[11] = IPA/water aw 0.4, room temperature, solid by XRPD Form I & II
[12] = IPA/water aw 0.5, room temperature, solid by XRPD Form I & II
[13] = IPA/water aw 0.6, room temperature, solid by XRPD Form I & II
[14] = Form I slurried in IPA/water aw 0.2, room temperature
[15] = Form I slurried in IPA/water aw 0.3, room temperature
[16] = Form I slurried in IPA/water aw 0.4, room temperature
[17] = Form I slurried in IPA/water aw 0.5, room temperature
[18] = Form I slurried in IPA/water aw 0.6, room temperature
[19] = Form I slurried in IPA/water aw 0.7, room temperature
[20] = Form I slurried in IPA/water aw 0.8, room temperature
[21] = Form I slurried in IPA/water aw 0.9, room temperature

temperature at which form conversion of heated solids was observed ([1]; solids heated at 50-120° C. jacket temperature for 22 hours, XRPD (FIG. 6)): around 90 °C
Form (solid form after slurry) ([2]; Form I slurried in ethanol/water aw 0.9, several days, room temperature): I & VII
Form conversion in ethanol/water system ([2]; water activity 0.5 and 0.6, room temperature (data not shown in Table 6)): no conversion
Form conversion in ethanol/water system ([2]; water activity from 0.2 to 0.4, room temperature (data not shown in Table 6)): slowly converted to Form II
Form observed after suspension in acetone ([3]; 50 mg/mL, 30 ° C., suspension time 5 days): Enriched II
Form observed after suspension in acetone ([3]; 51 mg/mL, 27 ° C., suspension time 5 days): Enriched II
Form observed after suspension in acetone ([3]; 52 mg/mL, 33 ° C., suspension time 6 days): Form I
Form observed after suspension in acetone ([3]; 52 mg/mL, 37 ° C., suspension time 6 days): Form I
conversion of Form I into Form II ([4]; after 18 hours): about 50%
conversion of Form I into Form II ([4]; after 40 hours): about 90%
solubility at 48 h [5, 9]: 24 mg/mL (≈ 57.8 mM)
solubility [5, 9]: 20 mg/mL (≈ 48.1 mM)
solubility at 48 h [5, 10]: 19 mg/mL (≈ 45.7 mM)
solubility [5, 10]: 19 mg/mL (≈ 45.7 mM)
solubility at 48 h [5, 11]: 18 mg/mL (≈ 43.3 mM)
solubility [5, 11]: 20 mg/mL (≈ 48.1 mM)
solubility at 48 h [5, 12]: 23 mg/mL (≈ 55.4 mM)
solubility [5, 12]: 20 mg/mL (≈ 48.1 mM)
solubility at 48 h [5, 13]: 23 mg/mL (≈ 55.4 mM)
solubility [5, 13]: 24 mg/mL (≈ 57.8 mM)
solubility at 48 h ([5]; IPA/water aw 0.7, room temperature, solid by XRPD Form III): 9.8 mg/mL (≈ 23.6 mM)
solubility at 48 h ([5]; IPA/water aw 0.8, room temperature, solid by XRPD Form III): 11 mg/mL (≈ 26.5 mM)
XRPD (forms observed) ([6]; 163 mg, 2000 psi, 5 min, relaxation time 72 hours): I & II (~1:1)
XRPD (forms observed) ([6]; 164 mg, 3000 psi, 5 min, relaxation time 2 hours): I & II (~1:1)
XRPD (forms observed) ([6]; 167 mg, 2000 psi, 10 min, relaxation time 72 hours): I & II (~1:1)
XRPD (forms observed) ([6]; 168 mg, 3000 psi, 10 min, relaxation time 2 hours): I & II (~1:1)
XRPD (forms observed) ([6]; 171 mg, 3000 psi, 60 min, relaxation time 72 hours): I & II (excess
XRPD (forms observed) ([6]; amount NA, atm pressure, no compression): Form I &
conversion of Form I to Form II ([6]; compressed at 3000 psi for 60 minutes (FIG. 5C)): over 50%
XRPD (forms observed) ([6]; ~150 mg, 1000 psi, <0.5 min, relaxation time 24 hours): Form I and II
XRPD (forms observed) ([6]; ~150 mg, atm pressure, no compression): Form I and II
XRPD (forms observed) ([6]; ~160 mg, 4500 psi, <0.5 min): Form I and II
Form II content ([7]; 0.2 g, dry/wet grinding, acetone slurry, r.t., magnetic stirring, after 1 day): Enriched after 1 day
Form II content ([7]; 0.2 g, dry/wet grinding, acetone slurry, r.t., magnetic stirring, after 2 days): Highly enriched after 2 days
Form II content ([7]; 1 g, dry/wet grinding, acetone slurry, r.t., magnetic stirring, after 1 week): Trace amount after 1 week
Form II content ([7]; 1 g, high shear mixer (dry), THF slurry, r.t., magnetic stirring, after 1 day): Trace amount after 1 day
Form II content ([7]; 1 g, high shear mixer (dry), acetone slurry, r.t., magnetic stirring, after 1 day): Trace amount after 1 day
Form II content ([7]; 1 g, jet milled, acetone slurry, 22 ° C., magnetic stirring, after 1 day): Small amount after 1 day
Form II content ([7]; 1 g, jet milled, acetone slurry, 22 ° C., magnetic stirring, after 4 days): Enriched after 4 days
Form II content ([7]; 5 g, high shear wet mill, acetone slurry, 30 ° C., overhead stirring, after 3 days): Undetectable after 3 days
Form II content ([7]; 20 g, dry grinding, acetone slurry, 30 ° C., overhead stirring, after 3 days): Undetectable after 3 days
15-16 Day XRPD (solid form) [8, 14]: Form I & II
48 Hour XRPD (solid form) [8, 14]: Form I & II
15-16 Day XRPD (solid form) [8, 15]: Form I & II
48 Hour XRPD (solid form) [8, 15]: Form I & II
15-16 Day XRPD (solid form) [8, 16]: Form I & II
48 Hour XRPD (solid form) [8, 16]: Form I & II
15-16 Day XRPD (solid form) [8, 17]: Form I & II
48 Hour XRPD (solid form) [8, 17]: Form I & II
15-16 Day XRPD (solid form) [8, 18]: Form I & II
48 Hour XRPD (solid form) [8, 18]: Form I & II
15-16 Day XRPD (solid form) [8, 19]: Form III
48 Hour XRPD (solid form) [8, 19]: Form III
15-16 Day XRPD (solid form) [8, 20]: Form III
48 Hour XRPD (solid form) [8, 20]: Form III
15-16 Day XRPD (solid form) [8, 21]: Form III
48 Hour XRPD (solid form) [8, 21]: Form III
Compound: CC[C@H](Nc1ncnc2[nH]cnc12)c1nc2cccc(F)c2c(=O)n1-c1ccccc1 [Form I, (S)-2-(1-(9H-purin-6-ylamino)propyl)-5-fluoro-3-phenylquinazolin-4(3H)-one]

solid-solid transition temperature (to produce Form I) ([1]; by DSC): about 115 °C
Compound: CC[C@H](Nc1ncnc2[nH]cnc12)c1nc2cccc(F)c2c(=O)n1-c1ccccc1 [Form II, (S)-2-(1-(9H-purin-6-ylamino)propyl)-5-fluoro-3-phenylquinazolin-4(3H)-one]
